These results are taken from patent US20220125051A1, “PRE-HARVEST DESICCATION METHOD” (SYNGENTA CROP PROTECTION AG, priority 2019, published 2022).

Holding throughout (assay type): in vivo
For assay [1], the system named is Eleusine indica (ELEIN). The assay can be described thus: Post-emergence efficacy, Method B. The settings on record: Method B, 100=total damage to plant, 0=no damage, read-out: Control of weed species after post-emergence application, ELEIN. The protocol: (§1) An “instant formulation”, known as the IF50, containing 50 g/L of the “technical” (i.e. unformulated) active ingredient was prepared by dissolving the active ingredient in a mixture of organic solvents and emulsifier, details of which are provided in the table. This IF50 was then mixed with a small, variable amount of acetone to aid dissolution, before addition of an aqueous solution of 1% v/v ammonium sulphate+1% v/v Empicol ESC70 (Sodium lauryl ether sulphate) adjuvant, as the aqueous diluent, to form an aqueous spray solution which contains a predetermined concentration of the active ingredient (which varies depending on the application rate of the active ingredient to the plants).
(§2) This aqueous spray solution was then sprayed onto the plants, after about 12 days' cultivation. The plants were grown from seeds sown in standard soil, placed in a glasshouse under controlled conditions (at 24/18° C. or 20/16° C., day/night; 16 hours light; 65% humidity). After spray application the plants were then grown on in a glasshouse under the same conditions and watered twice daily. […] the test was evaluated (100=total damage to plant; 0=no damage to plant).
(§3) Ipomoea hederacea (IPOHE), Euphorbia heterophylla (EPHHL), Chenopodium album (CHEAL), Amaranthus retroflexus (AMARE), Lolium perenne (LOLPE), Digitaria sanguinalis (DIGSA), Eleusine indica (ELEIN), Echinochloa crus-galli (ECHCG), Setaria faberi (SETFA)

Assay [2] concerns Euphorbia heterophylla (EPHHL). The assay can be described thus: Post-emergence efficacy, Method B. The settings on record: Method B, 100=total damage to plant, 0=no damage, read-out: Control of weed species after post-emergence application, EPHHL. Here is the method:
as §1, §2, §3

The subject of assay [3] is Ipomoea hederacea (IPOHE). The assay can be described thus: Post-emergence efficacy, Method B. To be noted: Method B, 100=total damage to plant, 0=no damage, read-out: Control of weed species after post-emergence application, IPOHE. Here is the method: as §1, §2, §3
Assay [4] deals with Digitaria sanguinalis (DIGSA). The assay can be described thus: Post-emergence efficacy, Method B. The settings on record: Method B, 100=total damage to plant, 0=no damage, read-out: Control of weed species after post-emergence application, DIGSA. The protocol:
as §1, §2, §3

For assay [5], the system named is Lolium perenne (LOLPE). The assay can be described thus: Post-emergence efficacy, Method B. To be noted: Method B, 100=total damage to plant, 0=no damage, read-out: Control of weed species after post-emergence application, LOLPE. The protocol:
as §1, §2, §3

Assay [6] deals with Setaria faberi (SETFA). The assay can be described thus: Post-emergence efficacy, Method B. The settings on record: Method B, 100=total damage to plant, 0=no damage, read-out: Control of weed species after post-emergence application, SETFA. Here is the method:
as §1, §2, §3

Assay [7] deals with Amaranthus retroflexus (AMARE). The assay can be described thus: Post-emergence efficacy, Method B. To be noted: Method B, 100=total damage to plant, 0=no damage, read-out: Control of weed species after post-emergence application, AMARE. Here is the method: as §1, §2, §3
For assay [8], the system named is Chenopodium album (CHEAL). The assay can be described thus: Post-emergence efficacy, Method B. To be noted: Method B, 100=total damage to plant, 0=no damage, read-out: Control of weed species after post-emergence application, CHEAL. Here is the method: as §1, §2, §3
In assay [9] the test system is Echinochloa crus-galli (ECHCG). The assay can be described thus: Post-emergence efficacy, Method B. The settings on record: Method B, 100=total damage to plant, 0=no damage, read-out: Control of weed species after post-emergence application, ECHCG. Here is the method:
as §1, §2, §3

Assay [10] concerns Eleusine indica (ELEIN). The assay can be described thus: Post-emergence efficacy, Method A. The settings on record: Eleusine indica, post-emergence, 312 h, evaluated after 13 days. Summed up: (§4)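 Plants raised 14 days from seed in standard soil in a glasshouse (24/16 °C day/night, 14 h light, 65% humidity) were sprayed with compound dissolved in acetone plus IF50 solvent/emulsifier (50 g/l solution), diluted with 0.25% or 1% Empicol ESC70 + 1% ammonium sulphate. Damage was scored visually after 13 days (0 = none, 100 = total).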

Assay [11] deals with Euphorbia heterophylla (EPHHL). The assay can be described thus: Post-emergence efficacy, Method A. To be noted: Euphorbia heterophylla, post-emergence, 312 h, evaluated after 13 days. Summed up: as §4
For assay [12], the system named is Ipomoea hederacea (IPOHE). The assay can be described thus: Post-emergence efficacy, Method A. The settings on record: Ipomoea hederacea, post-emergence, 312 h, evaluated after 13 days. The gist of the method: as §4
Assay [13] deals with Digitaria sanguinalis (DIGSA). The assay can be described thus: Post-emergence efficacy, Method A. To be noted: Digitaria sanguinalis, post-emergence, 312 h, evaluated after 13 days. The gist of the method:
as §4

In assay [14] the test system is Amaranthus palmeri (AMAPA). The assay can be described thus: Post-emergence efficacy, Method A. To be noted: Amaranthus palmeri, post-emergence, 312 h, evaluated after 13 days. Summed up:
as §4

In assay [15] the test system is Lolium perenne (LOLPE). The assay can be described thus: Post-emergence efficacy, Method A. To be noted: Lolium perenne, post-emergence, 312 h, evaluated after 13 days. Summed up:
as §4

For assay [16], the system named is Setaria faberi (SETFA). The assay can be described thus: Post-emergence efficacy, Method A. To be noted: Setaria faberi, post-emergence, 312 h, evaluated after 13 days. The gist of the method: as §4
Assay [17] relates to Chenopodium album (CHEAL). The assay can be described thus: Post-emergence efficacy, Method A. The settings on record: Chenopodium album, post-emergence, 312 h, evaluated after 13 days. Summed up:
as §4

Assay [18] deals with Echinochloa crus-galli (ECHCG). The assay can be described thus: Post-emergence efficacy, Method A. The settings on record: Echinochloa crus-galli, post-emergence, 312 h, evaluated after 13 days. The gist of the method:
as §4

The structures appear in SMILES notation. Where two headings read alike, the source gives them in different places.

For the compound `O=S(=O)([O-])CC[n+]1ccc(-c2ccncn2)cn1` [Compound A4], the pest or weed control at 500 g/ha in assay [1] (500 g/Ha) is 80%; in assay [2] (500 g/Ha) it was 100%; in assay [3] (500 g/Ha), 100%; in assay [4] (500 g/Ha), 100%; in assay [5] (500 g/Ha), 90%; in [6] (500 g/Ha), 40%. Moreover, the pest or weed control at 500 g/ha in assay [7] (500 g/Ha) amounted to 100%; in [8] (500 g/Ha), 80%; in assay [9] (500 g/Ha), 70%; in assay [10] (Application rate 500 g/Ha, 100=total damage to plant, 0=no damage to plant, read-out: Control of weed species after post-emergence application, ELEIN), 100%; in assay [11] (Application rate 500 g/Ha, 100=total damage to plant, 0=no damage to plant, read-out: Control of weed species after post-emergence application, EPHHL), 100%; in [12] (Application rate 500 g/Ha, 100=total damage to plant, 0=no damage to plant, read-out: Control of weed species after post-emergence application, IPOHE), 90%. For the same compound, the pest or weed control at 500 g/ha in [13] (Application rate 500 g/Ha, 100=total damage to plant, 0=no damage to plant, read-out: Control of weed species after post-emergence application, DIGSA) was 80%; in [14] (Application rate 500 g/Ha, 100=total damage to plant, 0=no damage to plant, read-out: Control of weed species after post-emergence application, AMAPA), 100%; in assay [15] (Application rate 500 g/Ha, 100=total damage to plant, 0=no damage to plant, read-out: Control of weed species after post-emergence application, LOLPE), 100%; in [16] (Application rate 500 g/Ha, 100=total damage to plant, 0=no damage to plant, read-out: Control of weed species after post-emergence application, SETFA), 60%; in assay [17] (Application rate 500 g/Ha, 100=total damage to plant, 0=no damage to plant, read-out: Control of weed species after post-emergence application, CHEAL) it was 80%; in assay [18] (Application rate 500 g/Ha, 100=total damage to plant, 0=no damage to plant, read-out: Control of weed species after post-emergence application, ECHCG) it was 60%.

Regarding `O=C([O-])CCC[n+]1ccc(-c2ncccn2)cn1` [Compound A220], the pest or weed control at 1000 g/ha was 100% in assay [1] (1000 g/Ha); 100% in assay [2] (1000 g/Ha); 30% in assay [3] (1000 g/Ha); 100% in assay [4] (1000 g/Ha); 90% in [5] (1000 g/Ha); 30% in assay [6] (1000 g/Ha). In addition, the pest or weed control at 1000 g/ha in assay [7] (1000 g/Ha) is 100%; in [8] (1000 g/Ha), 90%; in assay [9] (1000 g/Ha) it was 90%. In addition, the pest or weed control at 500 g/ha was found to be 20% in [10] (Application Rate 500 g/Ha, Method A, read-out: Control of weed species after post-emergence application, ELEIN (100=total damage to plant; 0=no damage to plant)); 90% in assay [11] (Application Rate 500 g/Ha, Method A, read-out: Control of weed species after post-emergence application, EPHHL (100=total damage to plant; 0=no damage to plant)); 80% in assay [12] (Application Rate 500 g/Ha, Method A, read-out: Control of weed species after post-emergence application, IPOHE (100=total damage to plant; 0=no damage to plant)); 90% in [13] (Application Rate 500 g/Ha, Method A, read-out: Control of weed species after post-emergence application, DIGSA (100=total damage to plant; 0=no damage to plant)); 100% in [14] (Application Rate 500 g/Ha, Method A, read-out: Control of weed species after post-emergence application, AMAPA (100=total damage to plant; 0=no damage to plant)); 60% in assay [15] (Application Rate 500 g/Ha, Method A, read-out: Control of weed species after post-emergence application, LOLPE (100=total damage to plant; 0=no damage to plant)). The pest or weed control at 500 g/ha in assay [16] (Application Rate 500 g/Ha, Method A, read-out: Control of weed species after post-emergence application, SETFA (100=total damage to plant; 0=no damage to plant)) stood at 60%; in assay [17] (Application Rate 500 g/Ha, Method A, read-out: Control of weed species after post-emergence application, CHEAL (100=total damage to plant; 0=no damage to plant)), 100%; in [18] (Application Rate 500 g/Ha, Method A, read-out: Control of weed species after post-emergence application, ECHCG (100=total damage to plant; 0=no damage to plant)), 40%.
